In patent publication US8304439B1, “Use of quaternary pyridinium salts as a therapeutic or preventing agent against ionizing radiation-induced damage” (priority 2007, dated 2012):

How the values were obtained:
murine leukemia L1210 = details: cited from earlier work; for cytotoxicity in cultured leukemia cells: comparison among the three salts
[1] = test system: male BALB/c mice, whole body irradiation 7.5 Gy; test: Survival of mice during 30 days following whole body gamma irradiation, compounds given before or after irradiation (Example 2); type: in vivo; details: 7.5 Gy whole body, from day 7 before or day 7 after irradiation until day 30
From the text: (§1) The survival rate of irradiated mice treated with the compounds in comparison control was used as a measure of a radioprotective effect.
The methodology followed was as described in B Hou. Z. W. Xu, C. W. Yang, Y. Gao, S. F. Zhao, C. G. Zhang: Protective effects of inosine on mice subjected to lethal total-body ionizing irradiation. J Radiat Res 48, 57-62, 2007. In brief, six-to-eight-week old male BALB/c mice obtained from the Nofer Institute of Occupational Medicine, ? ódź, Poland were used for the experiments. Whole bodies of the animals were exposed to a single irradiation (at the Military Institute of Chemistry and Radiometry) with gamma rays from the ^60Co source at 7.2 Gy/h mean dose rate to obtain the absorbed dose of 7.5 Gy per mouse. The absorbed doses were verified using thermoluminescent dosimeters implanted subcutaneously in the middle abdominal region. All the mice were maintained under specific pathogen-free conditions. Survival of the mice was assessed during 30 days following the irradiation.
The mice were divided into irradiated control group receiving no treatment, irradiated treatment group receiving MNA, irradiated treatment group receiving DMP, and irradiated treatment group receiving MAP. Each of the treatment groups was divided into two subgroups, the first group in which the animals received the tested compounds starting from day 7 before the irradiation, and the second group in which the animals received the tested compounds starting from day 7 after the irradiation.
The compounds were given dissolved in drinking water at 100 mg/kg of body weight/24 h (DMP and MAP) and 500 mg/kg of body weight (MNA)/24 h until day 30 post irradiation.

[2] = test system: mice irradiated with lethal dose of about 7.5 Gy; test: Survival rate of mice after whole body irradiation, MNA given before irradiation (Example 1); type: in vivo; details: whole body irradiation 7.5 Gy; 300 mg/kg per day in drinking water from the 7th day preceding irradiation, continued after; untreated group approximately 20%; FIG. 1
Experimental: as §1
The methodology used was as described by Cheda et al., Radiation Research 2004, 161, 335 (animals and irradiation).
The survival rate of mice irradiated with lethal dose of about 7.5 Gy was tested. The treatment group received 1-methylnicotinamide chloride (MNA) in drinking water at an average dose of 300 mg/kg per day every day starting from the 7th day preceding the irradiation day. The administration was continued after irradiation. The control group received no treatment.

[3] = 100 mg/kg/24 h in drinking water, FIG. 3, FIG. 4

Row | SMILES | cytotoxicity in cultured leukemia cells (murine leukemia L1210) | protective activity (survival of mice) [1, 3] | concentration at which activity was observed (murine leukemia L1210; L1210 cells) | survival rate of mice [2] | protective activity (survival of mice) ([1]; 500 mg/kg/24 h in drinking water, FIG. 2)
1 | C[n+]1cccc([N+](=O)[O-])c1.[Cl-] [3-nitro-1-methylpyridinium chloride, 1-methyl-3-nitropyridinium chloride, reference compound] | highest cytotoxicity | – | – | – | –
2 | Cc1cc[n+](C)cc1.[Cl-] [DMP, 1,4-dimethylpyridinium chloride] | – | exert their protective activity both when administered prior irradiation and when administered after irradiation | – | – | –
3 | CC(=O)c1ccc[n+](C)c1.[Cl-] [MAP, 1-methyl-3-acetylpyridinium chloride] | several thousands times lower | exert their protective activity both when administered prior irradiation and when administered after irradiation | – | – | –
4 | C[n+]1cccc(C(N)=O)c1 [MNA, 1-methylnicotinamide chloride] | several thousands times lower | – | observed only at very high concentration | about 50% | exert their protective activity both when administered prior irradiation and when administered after irradiation
